Experimental data taken from paper PMC10709440, “High-throughput ligand profile characterization in novel cell lines expressing seven heterologous insect olfactory receptors for the detection of volatile plant biomarkers” (Scientific Reports, 2023).
Like-named read-outs stand apart in the source and are kept apart here.

Legend:
[1] = biological target: T1, Drosophila OR47a (Drosophila melanogaster, UniProt P81921); test: Calcium ion fluorescence (GCaMP6) assay, OR47a stable HEK293 cell line; type: cell-based; conditions: for Average response: mean of biological replicates; for DF norm AVERAGE OR47a: normalized fluorescence change, values below 0.05 threshold given as 0
T1 construct: expressed in transfected cells
T1 sequence (P81921 1-385): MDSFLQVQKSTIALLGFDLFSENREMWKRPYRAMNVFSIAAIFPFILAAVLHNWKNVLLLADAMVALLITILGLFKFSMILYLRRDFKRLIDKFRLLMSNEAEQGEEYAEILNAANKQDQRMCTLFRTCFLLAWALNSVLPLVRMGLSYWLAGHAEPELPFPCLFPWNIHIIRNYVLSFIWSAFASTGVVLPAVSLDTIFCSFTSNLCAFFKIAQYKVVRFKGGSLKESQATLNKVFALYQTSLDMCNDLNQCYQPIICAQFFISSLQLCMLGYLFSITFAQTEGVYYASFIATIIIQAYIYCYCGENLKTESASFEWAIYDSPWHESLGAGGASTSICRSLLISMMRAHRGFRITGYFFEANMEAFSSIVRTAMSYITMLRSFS
T1 sequence (Q9VNB5 1-486 partner): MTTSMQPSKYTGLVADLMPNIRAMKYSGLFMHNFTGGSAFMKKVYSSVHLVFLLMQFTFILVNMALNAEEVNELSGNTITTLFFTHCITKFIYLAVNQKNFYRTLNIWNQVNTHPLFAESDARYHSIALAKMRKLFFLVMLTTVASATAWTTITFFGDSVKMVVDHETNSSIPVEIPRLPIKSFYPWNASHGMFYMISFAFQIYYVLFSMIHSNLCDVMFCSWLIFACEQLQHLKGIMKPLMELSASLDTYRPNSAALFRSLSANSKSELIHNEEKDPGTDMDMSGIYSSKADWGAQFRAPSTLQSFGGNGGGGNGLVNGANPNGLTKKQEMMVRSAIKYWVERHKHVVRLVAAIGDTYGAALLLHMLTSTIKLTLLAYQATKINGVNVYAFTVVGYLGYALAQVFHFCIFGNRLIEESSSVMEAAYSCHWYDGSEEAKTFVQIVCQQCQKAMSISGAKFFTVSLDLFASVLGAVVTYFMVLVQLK
Method in brief: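 HEK293 lines stably expressing each Drosophila OR with GCaMP6, doxycycline-induced (1 μg/mL) 48 or 72 h. Fluorescence recorded 5 s baseline then 30 s after VOC injection at pH 7.3; ΔF=(FMAX−F0)/F0, normalized to 50 µM VUAA1 response per line, triplicate wells averaged; concentration series 0.01–100 μM.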

[2] = biological target: T2, Drosophila OR98a (Drosophila melanogaster, UniProt Q9VAZ3); test: Calcium ion fluorescence (GCaMP6) assay, OR98a stable HEK293 cell line; type: cell-based; conditions: for DF norm AVERAGE OR98a: normalized fluorescence change, values below 0.05 threshold given as 0
T2 construct: expressed in transfected cells
T2 sequence (Q9VAZ3 1-397): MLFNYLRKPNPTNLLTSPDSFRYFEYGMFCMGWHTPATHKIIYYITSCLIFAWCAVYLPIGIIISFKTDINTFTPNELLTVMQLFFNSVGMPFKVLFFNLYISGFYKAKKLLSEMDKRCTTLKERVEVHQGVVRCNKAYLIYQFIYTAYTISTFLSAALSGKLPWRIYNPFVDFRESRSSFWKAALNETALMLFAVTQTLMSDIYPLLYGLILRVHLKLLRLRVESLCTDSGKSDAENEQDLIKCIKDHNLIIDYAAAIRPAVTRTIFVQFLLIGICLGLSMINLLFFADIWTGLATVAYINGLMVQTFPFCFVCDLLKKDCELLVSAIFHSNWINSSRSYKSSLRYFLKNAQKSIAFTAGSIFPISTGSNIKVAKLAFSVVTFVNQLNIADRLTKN
T2 sequence (Q9VNB5 1-486 partner): T1 sequence (Q9VNB5 1-486 partner)
Procedure: These VUAA1 normalized ∆F values were used to compare the different receptors and ligands.
The concentration-dependent effect of the reference ligands on their cognate cell lines was examined in more detail. Twelve different ligand concentrations were measured on each cell line in an overall 0.01 μM to 100 μM concentration range with 5 repetitions with three technical replicates each time.
Twelve thousand to 18,000 cells were plated into each well of a black wall, transparent bottom 384-well microplate (Greiner) 48 h or 72 h before the measurements and were simultaneously treated with 1 μg/mL doxycycline. […] The plate has 24 columns, thus we could record responses in up to eight different cell lines in each plate. On the day of the experiment, the growth medium was replaced with 20 µL assay buffer/well (140 mM NaCl, 5 mM KCl, 2 mM CaCl2, 1 mM MgCl2, 5 mM HEPES-Na, 20 mM glucose, pH 7.3, 340 mOsm). […] Baseline fluorescence (F0) was recorded for 5 s, after which 7 µL VOC buffer (140 mM NaCl, 5 mM KCl, 2 mM CaCl2, 1 mM MgCl2, 5 mM HEPES-Na, 31 mM glucose, 0.1% DMSO, pH 7.3, 340 mOsm) was injected into each well in one row and the fluorescence response was recorded for an additional 30 s, at a rate of one read/sec. VOC solutions (VOC buffer with 4× concentration of the final measured VOC concentration, 9 µL/well was injected) were measured on the same wells in a second round with the same protocol. Each individual concentration of a specific VOC sample was recorded in three wells for the same cell line on the same microplate. The raw data were exported in xls file format, F0 and FMAX values, and the fluorescence intensity changes (∆F) were calculated in Excel (Microsoft) (Supplementary file Data summary.xlsx) using the following equation: ΔF=FMAX-F0/F0 (see also Fig. 1C). On each plate, we recorded the response of each cell line to 50 µM VUAA1. The average of these ∆F values of each cell line were used to calculate the VUAA1-normalized values for the rest of the plate, by dividing VOC response ∆F values by the average VUAA1 response ∆F value of the corresponding OR cell line. Each VOC-OR combination was measured three times as technical replicates. […] The average of these replicates were used as one ∆F and VUAA1-normalized ∆F in the following analysis.
In the next rows we tested the reference VOCs (or other VOCs known to activate the corresponding cell lines), in order to test if all cell lines are responsive. The remaining rows were used to test VOCs with unknown effect.
The recorded FMAX, F0, ∆F, VUAA1-normalized ∆F values, as well as the OR name, the name of the tested sample, and the final concentration for each well were copied into supplementary file Data summary.xlsx, that was used to summarize all the plates recorded. Here, the averages of the measurements were calculated for each receptor-VOC-concentration combination.

[3] = HEK293, read-out: OR47a response (VUAA1-normalized response)
[4] = HEK293, read-out: Average response
[5] = HEK293, read-out: OR98a Average response (VUAA1-normalized)
[6] = HEK293, read-out: OR98a response (VUAA1-normalized response)

SMILES: CCCCC(C)O (stereo not drawn) [2-hexanol]
- activation at 1 µM [1, 3]: 0%
- activation at 10 µM [1, 3]: 0%
- activation at 100 µM [1, 3]: 5%
- Average response ([1]; OR47a cell line, odorant cc. 1 µM): 0.04
- Average response ([1]; OR47a cell line, odorant cc. 10 µM): 0.00
- Average response ([1]; OR47a cell line, odorant cc. 100 µM): 0.05
- DF norm AVERAGE OR47a ([1]; concentration 1): 0
- DF norm AVERAGE OR47a ([1]; concentration 10): 0
- DF norm AVERAGE OR47a ([1]; concentration 100): 0.05091
- activation at 1 µM [2, 4]: 0%
- activation at 10 µM [2, 4]: 0%
- activation at 100 µM [2, 4]: 14%
- activation at 1 µM [2, 5]: 0%
- activation at 10 µM [2, 5]: 0%
- activation at 100 µM [2, 5]: 14%
- activation at 1 µM [2, 6]: 0%
- activation at 10 µM [2, 6]: 0%
- activation at 100 µM [2, 6]: 14%
- DF norm AVERAGE OR98a ([2]; concentration 1): 0
- DF norm AVERAGE OR98a ([2]; concentration 10): 0
- DF norm AVERAGE OR98a ([2]; concentration 100): 0.1401

SMILES: CC/C=C\CCOC(C)=O [Z-3-hexenyl acetate]
- OR47a response (VUAA1-normalized) at 1 μM ([1]; OR47a cell line, VOC concentration 1 μM): 0.35
- OR47a response (VUAA1-normalized) at 10 μM ([1]; OR47a cell line, VOC concentration 10 μM): 0.67
- OR47a response (VUAA1-normalized) at 100 μM ([1]; OR47a cell line, VOC concentration 100 μM): 0.76
- OR98a response (VUAA1-normalized) at 1 μM ([2]; OR98a cell line, VOC concentration 1 μM): 0.00
- OR98a response (VUAA1-normalized) at 10 μM ([2]; OR98a cell line, VOC concentration 10 μM): 0.00
- OR98a response (VUAA1-normalized) at 100 μM ([2]; OR98a cell line, VOC concentration 100 μM): 0.10
